The numbers were not newly measured in patent US6632827B2 (Sepracor Inc., priority 1996, dated 2003), which cites them from elsewhere.

In one series the target is T1, 5HT4 receptors (Mus musculus, UniProt P97288).
T1 construct: Using cultured mouse embryo colliculi neurons and cAMP generation as an endpoint for designating 5HT4 activity; host or cells: cultured mouse embryo colliculi neurons
As to conditions: cultured mouse embryo colliculi neurons; read-out: EC50 concentration, cAMP generation as endpoint for 5HT4 activity.

The conditions of series [1]: co-administered ketoconazole.
The subject of another series is beta-adrenergic. To be noted: S-enantiomer vs R-enantiomer.

Structures are written as SMILES.

T1 sequence (P97288 whole entry): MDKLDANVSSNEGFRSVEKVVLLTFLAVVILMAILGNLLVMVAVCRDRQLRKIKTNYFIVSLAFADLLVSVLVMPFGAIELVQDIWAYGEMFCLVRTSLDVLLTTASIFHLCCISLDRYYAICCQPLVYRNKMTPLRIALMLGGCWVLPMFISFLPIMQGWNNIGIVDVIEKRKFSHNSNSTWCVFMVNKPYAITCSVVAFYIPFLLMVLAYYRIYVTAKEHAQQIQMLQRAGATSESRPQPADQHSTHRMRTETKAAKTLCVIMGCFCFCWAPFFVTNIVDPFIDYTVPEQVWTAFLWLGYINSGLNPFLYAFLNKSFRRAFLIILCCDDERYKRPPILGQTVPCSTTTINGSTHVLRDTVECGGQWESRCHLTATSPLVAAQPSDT

Regarding `COc1cc(N)c(Cl)cc1C(=O)N[C@H]1CCN(CCCOc2ccc(F)cc2)C[C@H]1OC` (racemic) [(±) Cisapride, cis-4-amino-5-chloro-N-[1-[3-(4-fluorophenoxy)propyl]-3-methoxy-4-piperidinyl]-2-methoxybenzamide], the “Bioavailability of the parent compound” value (oral administration to humans) is 40-50%. Besides, the “Fraction of dose metabolized” value (oxidative N-dealkylation or aromatic hydroxylation) is listed as “More than 90%”. Moreover, the EC50 at 5HT4 receptors was 70 nM. In addition, the “Increase in steady-state plasma levels” value in series [1] is 8 fold.
On to `COc1cc(N)c(Cl)cc1C(=O)NC1CCNCC1OC` (racemic) [(±) Norcisapride, 4-amino-5-chloro-N-(3-methoxy-4-piperidinyl)-2 methoxybenzamide], for which, under “urine of humans 72 hours after dosing of cisapride”, the “Share of the drug found in urine” value was 50-80%.
On to `CC(C)NCC(O)COc1cccc2ccccc12` (stereo not drawn) [propranolol], for which the “Potency of S-enantiomer relative to R-enantiomer” value in the series with beta-adrenergic is recorded as 100 times.
